Molecules are shown by their SMILES.

The nature of series [1]: Maximal tolerated dosage in healthy mice, single administration. Particulars: HFn-Dox by Dox equivalent. The source says:
In the therapy of a cancer patient, the dosage of administration and the number of administration were very important. However, bound by toxic side effects of chemotherapeutic drugs, the therapy of cancer usually became administration in a small amount at a high frequency.

In series [2] the test system is HT-29 implanted tumor. In words: Anti-tumor pharmacodynamics in nude mice bearing HT-29 implanted tumor. Particulars: single tail vein dose.
Description: 40 female BALB/c nude mice bearing HT-29 implanted tumor were randomly divided into five groups. When the volume of the implanted tumor was up to about 100 square millimeters, drugs were injected to all of tumor-bearing mice through the tail vein. […] Since the maximal tolerated dosage of mice to free Doxorubicin was 5 mg/kg mouse body weight, the administration dosage of the free Doxorubicin group was 5 mg/kg mouse body weight. […] Measurements of body weights and tumors of mice were three times per week.

Consider `COc1cccc2c1C(=O)c1c(O)c3c(c(O)c1C2=O)C[C@@](O)(C(=O)CO)C[C@@H]3O[C@H]1C[C@H](N)[C@H](O)[C@H](C)O1` [free Doxorubicin, Doxorubicin], for which the maximal tolerated dosage in series [1] came to 5 mg/kg. Moreover, the “average survival time of tumor-bearing mice” value in series [2] (free Dox 5 mg/kg, Doxil 20 mg/kg) is given as 18 days. For the same molecule, the tumor growth inhibition entry in series [2] (free Doxorubicin 5 mg/kg, HFn-Dox and Doxil 20 mg/kg, 40-day window) was “almost no inhibitory effect”.
